Measurements published in patent US9802962B2, “Tricyclic pyrone compounds reduce amyloid beta aggregates” (priority 2013, dated 2017).
“Also recorded” adds a separate entry of the source.

What was measured:
[1] = Plasma and brain concentrations after i.v. administration in mice; assay type: in vivo
Procedure: FIGS. 3A-3B. FIG. 3A. CP2 and TP70 plasma and brain concentrations following i.v. injection in mice (n=3). FIG. 3B. […] The drug concentration was determined using HPLC and mass spectrometry.
HPLC/mass spectrometry were employed to quantify CP2 and TP70 in the plasma and brain after i.v. administration in mice. The CP2 concentration was 200-300 μM in the mouse brain between 0.5 and 2 h following 25 mg/kg i.v. administration (FIG. 3A). Similarly, TP70 concentration reached 190 μM in plasma at 5 min and 160 μM in brain at 2 h following 25 mg/Kg i.v. administration (FIGS. 3A and 3B).

[2] = Cerep in vitro profiling (protein binding, absorption, metabolic stability, off target activity); assay type: in vitro ADME; details: Caco-2, P-gp, human liver microsomes, CYPs, HepG2 viability, hERG
[3] = Plasma PK and bioavailability, iv versus po, in mice; assay type: in vivo
Procedure: FIG. 5. Plasma concentrations of TP70 following iv or po administration (25 mg/Kg; iv, n=3 in each timepoint; or po, n=3 in each timepoint). Plasma concentrations were plotted against time post-dosing.
Since the drug will ultimately be administered orally, the bioavailability (F) of TP70 was determined in mice (male C57BL/6, 4 to 6 months old, n=3/group). Each mouse was treated with TP 70 (25 mg/kg). The drug was initially dissolved in pure dimethyl sulfoxide (DMSO) and then diluted with 0.5% hydroxypropylcellulose (HPC) in distilled water in a final solution containing 2% DMSO. At different time points about 50 μl plasma was sampled via tail cut for blood collection with a tube treated with ethylenediaminetetraacetic acid (EDTA). The compound was measured using HPLC/mass spectrometer. The maximal plasma concentration following iv administration is 16.6±6.1 μg/ml (equivalent to 42 μM) and po is 6.9±0.17 μg/ml (equivalent to 17 μM).

rat hippocampal slices = assay: Long-term potentiation (LTP) in rat hippocampal slices; assay type: cell-based
Procedure: FIGS. 2A-2B. Effects of TP70 on rat hippocampal LTP. FIG. 2A. Top panels show superimposed field excitatory post-synaptic potentials (EPSPs) taken from baseline and 45 min following high frequency stimulation (HFS, four 1-s trains of 100 pulses of 0.2 ms delivered at 100 Hz, inter-train interval of 20 s) of the Schaffer collateral-CA1 synapses. FIG. 2B. […] In Control HFS induced LTP. AβO blocked LTP. TP70 (1 μM) restored LTP in the presence of AβO. TP70 alone enhanced LTP.
We further investigated effects of TP70 on basal neurotransmission and synaptic plasticity, for example long-term potentiation (LTP) in rat hippocampal slices as previously described (Villeda, et al., Nature, 2011, 477:90-94; Xie, et al., Pflugers Arch, 1994, 427:481-486).

[4] = Plasma and organ distribution after ip administration in mice; assay type: in vivo; details: 25 mg/kg ip
Procedure: FIG. 4. Concentrations or content of TP70 in the plasma and 7 key organs following ip administration of TP70 (25 mg/kg) in mice (n=3 each data point).
In addition to determination of drug concentrations in plasma and the brain, drug content in other six key organs, the heart, liver, lungs, intestine, and kidneys of mice (male C57BL/6, 3 months, Harlan, n=3 per timepoint) were also assessed in a separate pharmacokinetic (PK) study of TP70 (25 mg/kg, ip,) using HPLC and mass spectrometry.

## Cc1cc2c(c(=O)o1)C=C1CCC(C(C)CNCc3ccc(O)cc3)CC1O2 (centres unmarked) [TP70]
[1]; brain at 2 h, 25 mg/Kg i.v.
  brain concentration: 160 µM
[1]; i.v., mice
  CNS penetration: good CNS penetration
[1]; plasma at 5 min, 25 mg/Kg i.v.
  plasma concentration: 190 µM
[1]; plasma, i.v., 3-compartment model fit
  elimination t½: 2.5 h
[2]
  druggable profile versus currently used drugs or reference compounds: druggable profiles better or similar to several currently used drugs or reference compounds
[3]; iv route, 5 min
  Average concentration of TP70 in plasma: 16.6 ± 6.1 mg/L
[3]; iv route, 15 min
  Average concentration of TP70 in plasma: 10.2 ± 4 mg/L
[3]; iv route, 30 min
  Average concentration of TP70 in plasma: 8.2 ± 3.5 mg/L
[3]; iv route, 60 min
  Average concentration of TP70 in plasma: 3.7 ± 0.8 mg/L
[3]; iv route, 120 min
  Average concentration of TP70 in plasma: 2.02 ± 0.6 mg/L
[3]; iv route, 240 min
  Average concentration of TP70 in plasma: 1.8 ± 0.5 mg/L
[3]; iv route, 360 min
  Average concentration of TP70 in plasma: 0.9 ± 0.3 mg/L
[3]; iv route, fraction
  F: 1
[3]; iv, 25 mg/kg
  Area under the curve (AUC): 989
  maximal plasma concentration: 16.6 ± 6.1 µg/mL
  maximal plasma concentration (equivalent): 42 µM
  t1/2: around 30 min
[3]; oral gavage (po) route, 15 min
  Average concentration of TP70 in plasma: 2.8 ± 0.09 mg/L
[3]; oral gavage (po) route, 30 min
  Average concentration of TP70 in plasma: 3.9 ± 0.14 mg/L
[3]; oral gavage (po) route, 60 min
  Average concentration of TP70 in plasma: 6.9 ± 0.17 mg/L
[3]; oral gavage (po) route, 120 min
  Average concentration of TP70 in plasma: 4.2 ± 0.19 mg/L
[3]; oral gavage (po) route, 240 min
  Average concentration of TP70 in plasma: 2.4 ± 1.37 mg/L
[3]; oral gavage (po) route, 360 min
  Average concentration of TP70 in plasma: 1.2 ± 0.23 mg/L
[3]; po versus iv, 25 mg/kg
  bioavailability (F): 68%
[3]; po, 25 mg/kg
  Area under the curve (AUC): 678
  maximal plasma concentration: 6.9 ± 0.17 µg/mL
  maximal plasma concentration (equivalent): 17 µM
Rat hippocampal slices
  concentration required for enhancing synaptic activity and LTP restoration: 0.1 to 3 µM
Rat hippocampal slices; 1 μM, perfused 20 min prior to co-application of AβO
  LTP in the presence of AβO: restored LTP; also recorded: restored LTP to the non-AβO-treated level
Rat hippocampal slices; compound alone
  basal synaptic activity: without affecting basal synaptic activity
Rat hippocampal slices; without AβO
  magnitude of LTP, compound alone: significantly enhanced the magnitude of LTP
[4]
  distribution in the heart: lowest distribution in the heart
[4]; mice
  distribution in the brain: higher distribution in the brain than in the plasma and all other organs examined, except for kidneys
[4]; two hours post dosing
  disposition in the kidneys: highest disposition in the kidneys
  distribution in intestines: low distribution in intestines
